The test system of test [1] is RBL-2H3. Put plainly: Inhibition of anti-DNP-IgE-induced degranulation in rat RBL2H3 cells assessed as betahexosaminidase released at 10 uM after 20 mins by microplate reader assay. In kind it is functional. Conditions: RBL-2H3, 20 min.
For test [2], the system named is RBL-2H3. Description: Inhibition of anti-DNP-IgE-induced degranulation in rat RBL2H3 cells assessed as betahexosaminidase released at 100 uM after 20 mins by microplate reader assay. The conditions noted are these: RBL-2H3, 20 min. Type of test: functional.

In general, inhibition refers to the change of the read-out against control, counted positive when it falls.

In the case of `OC[C@]1(O)CO[C@@H](OC[C@H]2O[C@@H](O[C@H](CCCCc3ccc(O)cc3)CCc3ccc(O)cc3)[C@H](O)[C@@H](O)[C@@H]2O)[C@H]1O` [ACEROSIDEVIII], the inhibition at 10 µM with RBL-2H3 [1] is 11.7%. Also, the inhibition at 100 µM in the test with RBL-2H3 [2] was 22.4%. Taken in the same sequence, the figures for `C[C@H](CCc1ccc(O)cc1)O[C@@H]1O[C@H](CO)[C@@H](O)[C@H](O)[C@H]1O` were 25% and 42.3%. The corresponding values for `OC[C@]1(O)CO[C@@H](OC[C@H]2O[C@@H](O[C@H](CCCCc3ccc(O)cc3)CCc3ccc(O)cc3)[C@H](O[C@H]3OC[C@@](O)(CO)[C@@H]3O)[C@@H](O)[C@@H]2O)[C@H]1O` are 22.1% and 23.2%.

On to `Oc1ccc(CCCC[C@@H](O)CCc2ccc(O)cc2)cc1`, for which the inhibition at 10 µM in the test with RBL-2H3 [1] turned out to be 19.2%. Further, the inhibition at 100 µM in the test with RBL-2H3 [2] turned out to be 31.5%.

In the case of `O=c1c(O)c(-c2ccc(O)c(O)c2)oc2cc(O)cc(O)c12` [QUERCETIN], in the test on RBL-2H3 [1], the inhibition at 10 µM came to 32.9%.

`C[C@@H](O)CCc1ccc(O)cc1`: the inhibition at 10 µM in the test with RBL-2H3 [1] came out at 29.7%. For the same compound, the inhibition at 100 µM in the test with RBL-2H3 [2] worked out at 36.5%. Taken in the same sequence, the figures for `O=C(CCc1ccc(O)cc1)C[C@@H](CCc1ccc(O)cc1)O[C@@H]1O[C@H](CO[C@@H]2OC[C@](O)(CO)[C@H]2O)[C@@H](O)[C@H](O)[C@H]1O[C@H]1OC[C@@](O)(CO)[C@@H]1O` were 11.8% and 23.4%. Regarding `C[C@H](CCc1ccc(O)cc1)O[C@H]1O[C@H](COC(=O)C[C@@](C)(O)CC(=O)O)[C@@H](O)[C@H](O)[C@H]1O`, the inhibition at 10 µM in the test with RBL-2H3 [1] was 26.6%. In the test with RBL-2H3 [2], the inhibition at 100 µM stood at 20%.

For `C[C@H](CCc1ccc(O)cc1)O[C@@H]1O[C@H](CO[C@@H]2OC[C@@](O)(CO)[C@@H]2O)[C@@H](O)[C@H](O)[C@H]1O` [APIOSYLRHODODENDRIN], in the test with RBL-2H3 [1], the inhibition at 10 µM is 25.4%. Further, in the test on RBL-2H3 [2], the inhibition at 100 µM amounted to 26.7%.

The record behind these values is ChEMBL document CHEMBL1157920, “Inhibition of antigen-induced degranulation by aryl compounds isolated from the bark of Betula platyphylla in RBL-2H3 cells” (2010).
